{"source": "paper PMC4261083", "about": "“An atypical residue in the pore of Varroa destructor GABA-activated RDL receptors affects picrotoxin block and thymol modulation” (Insect Biochemistry and Molecular Biology, 2014)", "assay_in_all_cases": "Picrotoxin inhibition of GABA responses, two electrode voltage clamp in Xenopus oocytes", "format_in_all_cases": "cell-based", "key": {"[1]": {"molecular_target": "T1, 4M2 mutant Drosophila RDL receptor (N-7′H, T6′M, A20′S and A21′Q) (Drosophila melanogaster, UniProt P25123, A319S/A320Q/N292H/T305M)", "T1 construct": "expressed in transfected cells; host or cells: Xenopus laevis oocytes injected with cRNA", "T1 sequence (P25123 45-606 N292H/T305M/A319S/A320Q)": "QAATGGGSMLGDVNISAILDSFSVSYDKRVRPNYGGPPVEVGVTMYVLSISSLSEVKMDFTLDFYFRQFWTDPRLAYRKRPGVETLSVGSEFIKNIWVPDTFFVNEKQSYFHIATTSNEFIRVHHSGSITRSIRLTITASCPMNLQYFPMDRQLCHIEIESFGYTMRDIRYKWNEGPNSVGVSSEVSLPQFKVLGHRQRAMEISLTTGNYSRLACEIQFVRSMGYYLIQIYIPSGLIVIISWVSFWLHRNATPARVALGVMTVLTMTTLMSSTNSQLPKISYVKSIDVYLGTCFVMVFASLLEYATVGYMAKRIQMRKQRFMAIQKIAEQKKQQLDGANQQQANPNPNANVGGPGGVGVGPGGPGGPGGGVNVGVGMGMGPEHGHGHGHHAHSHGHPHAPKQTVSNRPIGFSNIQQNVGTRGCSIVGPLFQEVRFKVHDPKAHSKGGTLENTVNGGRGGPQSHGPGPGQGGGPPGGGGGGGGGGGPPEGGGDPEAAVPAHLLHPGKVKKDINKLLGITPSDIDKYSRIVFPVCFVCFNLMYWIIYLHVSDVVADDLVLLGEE", "conditions": "4M2 RDL", "procedure": "(§1) X. laevis oocyte-positive females were purchased from NASCO (Fort Atkinson, Wisconsin, USA) and maintained according to standard methods. Harvested stage V-VI Xenopus oocytes were washed in four changes of ND96 (96 mM NaCl, 2 mM KCl, 1 mM MgCl2, 1 mM CaCl2, 5 mM HEPES, pH 7.5), de-folliculated in 1.5 mg ml^−1 collagenase Type 1A for approximately 2 h, washed again in four changes of ND96 and stored in ND96 containing 2.5 mM sodium pyruvate, 0.7 mM theophylline and […].\n(§2) Drosophila RDL subunit cDNA (kindly gifted from N.Millar) was subcloned into pGEMHE for oocyte expression as previously described ([McGonigle and Lummis, 2010], [Millar et al., 1994]). Site directed mutagenesis was performed with the QuikChange mutagenesis kit (Agilent, La Jolla, CA). cRNA was transcribed in vitro from linearised pGEMHE cDNA template using the mMessage mMachine T7 Transcription kit (Ambion, Austin, Texas, USA). Stage V and VI oocytes were injected with 5 ng cRNA, incubated at 18 °C, and currents recorded 18–24 h post-injection.\n(§3) Xenopus oocytes were clamped at −60 mV using an OC-725 amplifier (Warner Instruments, Connecticut, USA), Digidata 1322A and the Strathclyde Electrophysiology Software Package (Department of Physiology and Pharmacology, University of Strathclyde, UK), or using the Roboocyte (MultiChannel Systems). Currents were recorded at 5 kHz and filtered at a frequency of 1 kHz. Micro-electrodes were fabricated from borosilicate glass (GC120TF-10, Harvard Apparatus, Edenbridge, Kent, UK) using a one stage horizontal pull (P-87, Sutter Instrument Company, California, USA) and filled with 3 M KCl. Pipette resistances ranged from 1.0 to 2.0 MΩ. Oocytes were perfused with ND96 at a constant rate of 12 ml min^−1. Drug application was via a simple gravity fed system calibrated to run at the same rate.\n(§4) Analysis and curve fitting was performed using Prism v5 (GraphPad Software, San Diego, California, USA). Concentration-response data for each oocyte was normalised to the maximum current for that oocyte. The mean and S.E.M. for a series of oocytes were fitted to the four parameter logistic equation in Prism."}, "[2]": {"molecular_target": "T2, A21′Q mutant Drosophila RDL receptor (Drosophila melanogaster, UniProt P25123, A320Q)", "T2 construct": "expressed in transfected cells; host or cells: Xenopus laevis oocytes injected with cRNA", "T2 sequence (P25123 45-606 A320Q)": "T1 sequence (P25123 45-606 N292H/T305M/A319S/A320Q) with H248N, M261T, S275A", "procedure": "as §1, §2, §3, §4"}, "[3]": {"molecular_target": "T3, T6′M mutant Drosophila RDL receptor (Drosophila melanogaster, UniProt P25123, T305M)", "T3 construct": "expressed in transfected cells; host or cells: Xenopus laevis oocytes injected with cRNA", "T3 sequence (P25123 45-606 T305M)": "T1 sequence (P25123 45-606 N292H/T305M/A319S/A320Q) with H248N, S275A, Q276A", "procedure": "as §1, §2, §3, §4"}, "[4]": {"conditions": "inhibition of GABA responses, read-out: Picrotoxin pIC50 (converted)"}}, "note": "Substitutions are numbered along the chain they refer to."}
{"substance": "picrotoxin", "values": [{"measurement": "Sensitivity to PTX", "setting": "[1]; PTX up to 100 μM", "result": "insensitive"}, {"measurement": "IC50", "setting": "[1]; [4]", "result": "> 100", "unit": "µM"}, {"measurement": "IC50", "setting": "[2]", "result": 0.36, "unit": "µM"}, {"measurement": "Picrotoxin pIC50", "setting": "[2]", "result": "6.45 ± 0.25"}, {"measurement": "Sensitivity to PTX", "setting": "[3]; PTX up to 100 μM", "result": "insensitive"}, {"measurement": "IC50", "setting": "[3]; [4]", "result": "> 100", "unit": "µM"}]}
